Measured values: paper PMC11783601, “Analogue-Sensitive Inhibition of Histone Demethylases Uncovers Member-Specific Function in Ribosomal Protein Synthesis” (Journal of the American Chemical Society, 2025)

Target: T1, asKDM4A (HA-tagged F185A) in HEK293T cells (Homo sapiens, UniProt O75164, F185A)
T1 construct: we generated the F185A mutation in full-length KDM4A carrying all of the functional domains; host or cells: HEK293T
T1 sequence (O75164 1-1064 F185A): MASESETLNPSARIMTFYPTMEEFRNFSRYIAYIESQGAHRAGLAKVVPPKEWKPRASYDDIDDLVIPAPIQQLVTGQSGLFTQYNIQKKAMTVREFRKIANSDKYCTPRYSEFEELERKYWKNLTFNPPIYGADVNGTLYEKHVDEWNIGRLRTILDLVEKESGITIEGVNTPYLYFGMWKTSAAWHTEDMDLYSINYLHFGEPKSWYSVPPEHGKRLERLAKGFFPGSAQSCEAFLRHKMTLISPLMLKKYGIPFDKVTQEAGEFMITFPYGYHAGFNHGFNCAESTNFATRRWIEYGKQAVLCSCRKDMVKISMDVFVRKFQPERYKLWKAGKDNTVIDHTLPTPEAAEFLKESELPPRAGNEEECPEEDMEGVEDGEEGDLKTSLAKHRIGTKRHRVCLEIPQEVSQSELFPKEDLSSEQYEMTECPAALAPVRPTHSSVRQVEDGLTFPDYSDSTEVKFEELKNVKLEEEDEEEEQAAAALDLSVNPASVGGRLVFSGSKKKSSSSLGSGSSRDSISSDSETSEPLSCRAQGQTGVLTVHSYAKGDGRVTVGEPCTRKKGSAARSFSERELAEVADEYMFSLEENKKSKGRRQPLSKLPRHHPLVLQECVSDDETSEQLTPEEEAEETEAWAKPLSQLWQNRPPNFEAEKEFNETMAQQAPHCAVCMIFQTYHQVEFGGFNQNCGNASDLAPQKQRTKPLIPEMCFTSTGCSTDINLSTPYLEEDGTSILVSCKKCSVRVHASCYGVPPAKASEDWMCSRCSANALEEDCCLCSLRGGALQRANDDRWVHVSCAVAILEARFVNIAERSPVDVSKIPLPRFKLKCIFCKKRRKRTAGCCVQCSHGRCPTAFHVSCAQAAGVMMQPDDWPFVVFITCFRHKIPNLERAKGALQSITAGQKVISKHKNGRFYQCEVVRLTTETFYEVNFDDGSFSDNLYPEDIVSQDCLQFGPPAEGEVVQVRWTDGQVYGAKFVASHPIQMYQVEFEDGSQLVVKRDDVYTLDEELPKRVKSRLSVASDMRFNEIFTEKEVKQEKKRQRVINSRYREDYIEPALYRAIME
Experiment: Time-dependent treatment and withdrawal of inhibitor, fixed cell imaging of H3K9me3 and BrdU
Type: cell-based
Protocol: We exploited the reversible mode of action of the allele-specific inhibitor to gain further insights into the temporal regulation of rRNA expression by histone demethylation. We reasoned that withdrawal of the reversible inhibitor from the cell-culture medium would restore the activity of asKDM4A in a temporally defined manner (Figure 8A). HEK293T cells expressing the F185A variant carrying an HA tag were treated with 6B and fixed at various time points. H3K9me3 levels were quantified in HA-positive cells to ensure that only cells with asKDM4A were considered for analysis. Within 3 h of compound treatment, a robust level of H3K9me3 ensued (Figure 8B). Subsequently, the same cells were allowed to grow in inhibitor-free media and examined for histone demethylation by fixed cell imaging.
To investigate if the restoration of H3K9me3 demethylation is directly linked to rRNA activation, cells overexpressing asKDM4A were first treated with 6B for 3 h followed by compound removal and brief exposure to 5FU before being fixed at different time points for immunofluorescence imaging (Figure 8A,C). […] We recorded a steady recovery of BrdU signal, reaching its maximum within 4–5 h postwithdrawal (equivalent to no 6B treatment) (Figure 8C), consistent with reactivation of asKDM4A as observed above. A relatively sluggish 5FU incorporation into rRNA (Figure 8C), compared to the rapid histone demethylation (Figure 8B), is likely due to the time required to assemble active transcriptional machinery at the rRNA promoters following the removal of the silencing H3K9me3 mark. Achieving such precise temporal control of protein function would be challenging using genetic tools. Collectively, employing the mutant and cognate inhibitor pair, we mapped a highly dynamic signaling pathway linking KDM4A-mediated locus-specific histone demethylation with upregulation of rRNA expression to modulate downstream processes such as ribosomal assembly and protein synthesis. […]
19. Fixed cell immunofluorescence staining
Cells were grown on poly-D-lysine (Gibco A3890401) treated glass coverslips (ThermoScientific 12-545-81P) overnight and transfected the next day with 300 ng KDM4A WT/F185A using […] of lipofectamine 2000 (Invitrogen 11668019). The cells were incubated overnight and treated with indicated inhibitor at varying time points. When probing rRNA transcription, cells were incubated with 2 mM 5-Fluorouridine (Sigma F5130) for 15 minutes. Cells were washed three times with phosphate buffered saline (PBS) at pH 7.6 (Corning 21040CV), fixed with 2% paraformaldehyde in PBS (ThermoFisher AAJ19943K2) for 15 minutes at room temperature, washed with PBS three times, and permeabilized with 0.1% tritonX (Fisher BP151-100) in PBS for 15 minutes. Next, coverslips were blocked with 2% Bovine Serum Albumin (BSA Fisher BP1600-100) in PBS for 1 hour at room temperature, coverslips were incubated with primary antibody diluted in 0.5% BSA PBS (anti-H3K9me3: Cell Signaling Technology cat: 13969S host:rabbit 1:1000; anti-HA: Cell Signaling Technology host:mouse, cat: 2367S or host:rabbit, cat: […]
hour at room temperature, then incubated with secondary antibodies diluted in 0.5% BSA PBS (anti-mouse—488: Invitrogen host: goat, cat: A-11001 or anti-rabbit—cy3: Invitrogen host: goat, […]
cat: A10520, both dilutions 1:1000), between each step coverslips were washed five times with 0.5% BSA PBS. The nuclei were stained with Hoechst stain 0.01 mg/mL in H2O (Sigma B2883-25MG) for 30 seconds, washed with PBS and finally adhered to a slide with gelvatol. The cells were imaged at University of Pittsburgh Center for Biological Imaging on an Olympus Fluoview […]
20. Quantification of fixed-cell imaging data
TIF images obtained from confocal microscopy experiments were quantified in ImageJ. Images were converted to 8-bit images and then thresholded to remove background signal. All images within the same experiment used the same threshold values. For concentration dependent imaging […]

[1] = HEK293T cells expressing KDM4A-F185A, 6B for 3 h then withdrawal

SMILES: CC(C)CC(NC(=O)C(=O)OCc1cccc(C(F)(F)F)c1)C(=O)O [6B, L-Leu TFMB-ester NOG]
- time of compound treatment until a robust level of H3K9me3 ensued (HA-positive HEK293T cells expressing F185A): up to 3 h
- 5FU incorporation after compound withdrawal [1]: gradual increase in 5FU incorporation
- H3K9me3 after compound withdrawal [1]: rapid H3K9me3 demethylation
- time postwithdrawal until BrdU signal reached its maximum (after 3 h 6B treatment and removal, equivalent to no 6B treatment): 4 to 5 h
- BrdU signal (5FU incorporation) (cells overexpressing asKDM4A treated with 6B for 3 h): significant decrease in BrdU signal
- time after compound removal until asKDM4A regained its demethylase activity (inhibitor-free media, activity increased for up to 3 h): ≤ 1 h
